Laboratory results published in paper PMC10584170, “Machine learning-based phenotypic imaging to characterise the targetable biology of Plasmodium falciparum male gametocytes for the development of transmission-blocking antimalarials” (PLOS Pathogens, 2023).
Where two headings read alike, the source gives them in different places.

Columns and labels:
[1] = tested on: P. falciparum gametocytes; assay: P. falciparum Gametocyte Viability ATP Assay (PfGCT); format: cell-based, Plasmodium falciparum; conditions: Mean TOX HepG2 over GC-ATP IC50; GREEN = >10-fold; RED = <10-fold
From the text: (§1) Fig 1 The activity of TCAMS compound identified in the Pf DGFA screen. (A) 85 molecules were confirmed active in the Pf DGFA. 58 were previously identified in one or more transmission-blocking screens. […] No molecule was identified with >4.7-fold greater activity against female gametocytes. Abbreviations (IC50 = concentration giving 50% inhibition, PbODA = P. berghei Ookinete Development Assay, PfDGFA = P. falciparum Dual Gamete Formation Assay, PfFGAA = P. falciparum Female Gametocyte Activation Assay, PfGCT = P. falciparum Gametocyte Viability ATP Assay).

[2] = tested on: P. falciparum female gametocytes; assay: P. falciparum Dual Gamete Formation Assay (PfDGFA), female readout (Pfs25-positive female gametes); format: cell-based, Plasmodium falciparum NF54; conditions: for IC50: this study, read-out: Pf DGFA IC50 FEM
Procedure, shortened: (§2)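 First, day-14 P. falciparum NF54 gametocytes receive compound for 24 h at 37°C in 1% O2/3% CO2. Next, ookinete medium with Cy3 anti-Pfs25 triggers gametogenesis at 28°C and male exflagellation is imaged. Finally, after 24 h in the dark, Cy3-labelled females are imaged.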

[3] = tested on: P. falciparum male gametocytes; assay: P. falciparum Dual Gamete Formation Assay (PfDGFA), male readout (exflagellation); format: cell-based, Plasmodium falciparum NF54; conditions: for IC50: this study, read-out: Pf DGFA IC50 MALE
Procedure, shortened: as §2

[4] = tested on: P. falciparum female gametocytes; assay: P. falciparum Female Gametocyte Activation Assay (PfFGAA); format: cell-based, Plasmodium falciparum; conditions: Mean TOX HepG2 over FGAA IC50; GREEN = >10-fold; RED = <10-fold
[5] = tested on: HepG2 cells; conditions: cited from earlier work
[6] = tested on: P. falciparum gametocytes; set-up: method as in Almela et al 2015; conditions: ref Almela et al 2015; read-out: Pf Gametocyte viability (ATP) GC-ATP IC50; cited from earlier work
[7] = tested on: HepG2 cells; assay: HepG2 cytotoxicity counter-screen; conditions: for Mean TOX: mean of the HepG2 TOX50 values
[8] = tested on: P. falciparum female gametocytes; set-up: method as in Miguel-Blanco et al 2017; conditions: ref Miguel-Blanco et al 2017; read-out: Pf female gametogenesis FGAA IC50; cited from earlier work
[9] = tested on: P. berghei ookinete development; assay: P. berghei Ookinete Development Assay (PbODA); format: cell-based, Plasmodium berghei; conditions: Mean TOX HepG2 over Pb ODA value; GREEN = >10-fold; RED = <10-fold
From the text: as §1

Compound	Cytotox ratio Pf GC-ATP [1]	Cytotox ratio Pf Female [2]	IC50 [2]	Cytotox ratio Pf Male [3]	IC50 [3]	Cytotox ratio Pf FGAA [4]	FGAA TOX50 HepG2 [5]	GC-ATP TOX50 HepG2 [5]	IC50 [6]	Mean TOX [7]	IC50 [8]	DGFA Tox50 HepG2 ([7]; HepG2 value reported with the DGFA screen)	ODA TOX50 HepG2 [5]	Cytotox ratio Pb Ookinete [9]
Br.c1cc(Nc2nc(-c3ccc(-c4csc(Nc5ccncc5)n4)cc3)cs2)ccn1 [TC35]	30.9	26.8	300 nM	26.8	300 nM	267.7	2.26 µM	17.3 µM	260 nM	8.03 µM	30 nM	–	–	–
C=CCN(C(=O)c1ccc(Cl)c([N+](=O)[O-])c1)c1nc(-c2ccccc2)cs1 [TC38]	462.3	164.1	310 nM	127.1	400 nM	391.2	100 µM	25 µM	110 nM	50.86 µM	130 nM	–	–	–
c1ccc2sc(Sc3ncnc4sccc34)nc2c1 [TC45]	150.0	258.6	290 nM	250.0	300 nM	535.7	100 µM	25 µM	500 nM	75.00 µM	140 nM	100 µM	–	–
O=c1c(Br)ccccc1Br [TC48]	54.5	104.1	110 nM	76.3	150 nM	–	–	12.6 µM	210 nM	11.45 µM	–	–	14.791 µM	10834.6
Cc1sc2ncnc(Sc3nnc(N)s3)c2c1C [TC60]	141.5	57.4	740 nM	30.1	1410 nM	55.1	36.31 µM	25 µM	300 nM	42.45 µM	770 nM	–	–	–
